Experimental data as given in ChEMBL document CHEMBL5724709, “EUbOPEN Chemogenomics Library - IncuCyte” (2024).

Columns and labels:
Type in all cases: toxicity, cell-based
U2OS = assay: Incucyte cell viability with U2OS; settings: human, 24 h, 10 µM, compound concentration 10 uM
HEK-293T = assay: Incucyte cell viability with HEK293T; settings: human, 24 h, 10 µM, compound concentration 10 uM
Fibroblast = assay: Incucyte cell viability with human fibroblast; settings: 24 h, 10 µM, compound concentration 10 uM
Note: unitless GR value; below 1 slowed growth and below 0 cell loss.

Compound	Growth Rate (U2OS; replicate number 1)	Growth Rate (HEK-293T; replicate number 1)	Growth Rate (HEK-293T; replicate number 2)	Growth Rate (Fibroblast; replicate number 1)	Growth Rate (Fibroblast; replicate number 2)	Growth Rate (U2OS; replicate number 2)
CC(=O)N[C@@H](Cc1ccc(O)cc1)C(=O)N[C@H](C(=O)N[C@@H](C)C(=O)N[C@@H](CC(=O)O)C(=O)COC(=O)c1c(C)cccc1C)C(C)C	1	0.9	0.84	0.47	0.72	–
CC(=O)OCCN1C(=O)c2c(C)nc3ccc(S(=O)(=O)N4CCOCC4)cc3c2C1=O	0.83	0.92	1	0.85	1	1
C[C@H](NC(=O)[C@H](Cc1ccccc1)NC(=O)OCc1ccccc1)C(=O)CF	0.43	0.53	0.77	1	–	0.93
CCc1ccccc1NC(=O)CSC(=O)NNC(=O)[C@H](Cc1c[nH]c2ccccc12)NC(=O)OC(C)(C)C	1	0.24	0.54	1	–	–
CC(C)C[C@@H](C=O)NC(=O)[C@@H](NS(=O)(=O)c1ccc(F)cc1)C(C)C	0.76	0.64	0.92	0.96	1	1
O=C(O)/C(S)=C/c1c[nH]c2ccc(F)cc12	0.49	0.73	0.83	0.7	1	1
CNC(=O)O[C@H]1COc2ccc(N3CCN(C4COC4)CC3)cc2[C@@H]1NC(=O)c1ccc(F)cc1	1	0.89	0.97	1	0.67	–
O=C(c1ccc2c(ccn2-c2ccc(F)cc2)c1)N1CC(N2CCN(C(=O)c3nccs3)CC2)C1	0.99	0.76	0.97	0.6	1	0.91
O=C(O)/C(S)=C/c1ccc(I)cc1	1	0.71	0.86	1	0.47	–
CC(=O)N[C@@H](Cc1ccc(O)cc1)C(=O)N[C@H](C(=O)N[C@@H](C)C(=O)N[C@H](C=O)CC(=O)O)C(C)C	0.78	0.6	0.86	0.86	0.09	0.63
CN1CCN(c2nc(-c3ccc(C(=O)NC4(C(=O)NCC#N)CCCCC4)cc3)cs2)CC1	1	0.86	0.8	0.74	1	–
CCCNC(=O)[C@H]1O[C@@H]1C(=O)N[C@H](C(=O)N1CCC[C@H]1C(=O)O)[C@@H](C)CC	1	0.63	0.84	0.65	1	–
CC(C)(O)c1ccc(N2Cc3c(ccnc3-c3ccc(F)cc3OCC(F)(F)F)C2=O)cc1	0.05	0.87	1	0.68	0.44	1
[2H]C([2H])([2H])C1(C([2H])([2H])[2H])Cn2nc(-c3ccc(F)cn3)c(-c3ccnc4[nH]ncc34)c2CO1	0.32	0.81	0.89	0.73	1	0.8
COc1cccc(-c2nccc3c2CN(c2ccccc2)C3=O)c1	1	0.75	0.7	0.52	0.84	0.84
C[C@@H]1CN(c2nccc(Nc3ccc4c(c3)n(CCC(C)(C)O)c(=O)n4C)n2)C[C@H](C)C1(F)F	0.72	0.03	0.19	0.74	1	0.76
CC(=O)Nc1ccc(-c2cc(-c3ccccc3)nc3cc(C(=O)NCCCn4ccnc4)nn23)cc1	1	0.47	0.63	0.41	1	0.62
O=C(NCCCn1ccnc1)c1cc2nc(-c3ccccc3)cc(-c3ccccc3)n2n1	0.13	0.48	0.98	0.96	1	0.75
C[C@H](NC(=O)c1cn(C2(C#N)CC2)cn1)C(=O)Nc1nc(-c2cccc(-c3ccn(C)n3)c2)cs1	0.33	0.9	0.86	0.43	1	1

Compound	Growth Rate (U2OS; replicate number 1)	Growth Rate (HEK-293T; replicate number 1)	Growth Rate (HEK-293T; replicate number 2)	Growth Rate (Fibroblast; replicate number 1)	Growth Rate (Fibroblast; replicate number 2)	Growth Rate (U2OS; replicate number 2)
COCCOCCn1nc2c(c1C)-c1c(Cl)ccc3c1c(C)c(C(=O)O)n3CCCOc1cc(cc3c(F)c(Cl)ccc13)CCc1cc(nn1C)CSC2	0.15	0.27	0.51	-0.35	-0.82	0.75
Cc1cc(C(=O)N2CCN(C3CN(C(=O)c4ccc(-c5ccccc5)cc4)C3)CC2)no1	0.79	0.61	0.63	0.37	0.27	1
CCn1c(=O)c(C)cn(Cc2nnc(-c3ccc(F)c(OC)c3F)s2)c1=O	0.26	0.83	0.9	0.35	1	1
COC[C@H](NC(=O)c1ccn(S(C)(=O)=O)c1)C(=O)Nc1nc(-c2cccc(-c3ccn(C)n3)c2)cs1	0.77	1	–	0.89	1	–
CCC[C@@H]1CNCc2c1[nH]c(=O)c(C#N)c2N1CCC2(CC1)CC2.Cl	0.72	0.66	0.97	0.62	0.92	0.8
Cn1ncc2c(-c3c(-c4ccc(F)cn4)nn4c3COC(C)(C)C4)ccnc21	0.55	0.85	0.8	0.66	1	0.95
CCC(NC(=O)C(CC(C)C)NC(=O)OCc1ccccc1)C(=O)C(=O)NCCCN1CCOCC1.O=C(O)C(F)(F)F (stereo unspecified)	1	0.73	0.97	1	–	–
CC(=O)N[C@@H](CC(=O)O)C(=O)N[C@@H](CCC(=O)O)C(=O)N[C@H](C(=O)N[C@H](C=O)CC(=O)O)C(C)C.O=C(O)C(F)(F)F	1	0.74	1	0.55	0.22	–
CNC(=O)c1cc(Nc2ccnc(Nc3ccc(CCNC(=O)OC(C)(C)C)cc3)n2)[nH]n1	0.07	0.07	0.24	1	–	0.79
CC(=O)N[C@@H](CC(=O)O)C(=O)N[C@@H](CCC(=O)O)C(=O)N[C@H](C(=O)N[C@@H](CC(=O)O)C(=O)CCl)C(C)C.O=C(O)C(F)(F)F	1	0.81	1	1	0.21	–
O=C(Nc1c[nH]nc1C(=O)NC1CCNCC1)c1cc(F)cc(F)c1	-0.13	0.15	0.14	-0.45	-0.55	0.19
Cn1cc(NC(=O)c2cc(F)cc(F)c2)c(C(=O)NC2CCNCC2)n1	0.63	0.67	0.9	0.67	1	0.71
CC(C)c1cnc(CSc2cnc(NC(=O)C3CCNCC3)s2)o1	-0.6	-0.28	-0.09	-0.05	-0.46	-0.31
CN1CCN(c2cc(C(=O)Nc3ncc(SCc4cccc(C(F)(F)F)c4)s3)ccn2)CC1	0.31	0.24	0.59	0.19	1	0.48
CC(=O)N[C@@H](Cc1ccc(O)cc1)C(=O)N[C@H](C(=O)N[C@@H](C)C(=O)N[C@@H](CC(=O)O)C(=O)CCl)C(C)C	1	0.82	0.89	0.42	1	–
CC(C)(C)OC(=O)Nc1ccc(CNc2nccc(Nc3cc(C(=O)OC(C)(C)C)[nH]n3)n2)cc1	0.42	-0.38	-0.24	1	0.07	0.67
O=C(NCC1CCOCC1)c1n[nH]cc1NC(=O)c1c(F)cccc1F	0.03	0.35	0.49	-0.35	0.3	0.42
CNC(=O)c1cnc(N2CCC[C@H](N)C2)nc1Nc1cc(C(C)C)nc(C(C)C)c1	-0.44	-0.35	-0.02	0.72	0.44	0.05
COC[C@@H]1CCCN1S(=O)(=O)c1ccc2c(c1)C(=O)C(=O)N2	1	0.88	1	0.45	0.8	–
